How the values were obtained:
[1] = system: MCF7 breast cancer cells; assay: cells; type: cell-based, human
Protocol: (§1) MCF7, a breast cancer cell line was procured from the American Type Culture Collection (ATCC) and propagated in Dulbecco's Modified Eagle's medium (DMEM) supplemented with 10% (v/v) fetal bovine serum (FBS), 100 μg/ml streptomycin and 100 U/ml penicillin at 37° C. in a humidified incubator with 5% CO2. Human pancreatic cell lines, AsPC1 and PANC1, were obtained from the American Type Culture Collection (ATCC). AsPC1 cell line was grown in RPMI-1640 medium supplemented with 10% (v/v) fetal bovine serum (FBS), 100 μg/ml streptomycin and 100 U/ml penicillin. PANC1 cell line was cultured in DMEM supplemented with 10% (v/v) fetal bovine serum (FBS), 100 μg/ml streptomycin and 100 U/ml penicillin.
MCF7 cells (2×10^4 cells/well) were sub-cultured in 24-well plate and incubated at 37° C. in a humidified incubator with 5% CO2 for 20 hrs. […] After the drug treatment, cells were analysed under phase contrast microscope. […]
MCF7 cells (2×10^4 cells/well) were treated with 3 μM, 30 μM, 300 μM, 600 μM, 1.5 mM of isopicrinine at 37° C. in a humidified incubator with 5% CO2 for 20 hrs. After the drug treatment, cells were analysed under phase contrast microscope. Cytotoxicity was detected at 300 μM concentration onwards in all the samples. […] The nuclear morphological changes, which are mainly associated with apoptosis were analysed by Hoechst 33342 staining. […]

[2] = system: AsPC1 cell line; assay: cells; type: cell-based; conditions: Homo sapiens, ASPC1, 24 h, read-out: % Cell viability
Protocol: as §1
(§2) PANC1 and AsPC1 cells (1.3×10^4 cells/well) were sub-cultured in 96-well plates and incubated at 37° C. in a humidified incubator with 5% CO2 for 24 hrs. Varying concentrations of isopicrinine (i.e., 0, 30 μM, 75 μM, 150 μM and 300 μM were added to the cultured cells and further incubated at 37° C. in a humidified incubator with 5% CO2 for 24 hrs. The cell viability was determined using MTT (3-(4,5-dimethylthiazol-2-yl)-2,5-diphenyltetrazolium bromide) assay by following the manufacturer's instructions. Briefly, 20 μl/well of MTT was added to the cells and plates were incubated for 4 hrs. After the incubation, media along with the MTT was removed and 150 μl/well of isopropanol was added and further incubated for 15 min on shaker incubator. Spectrophotometer readings were taken at 450 nm and 630 nm. This assay is based on the conversion of yellow tetrazolium salt MTT to purple formazan crystal by metabolically active cells. The amount of formazan produced is proportional to the number of viable cells.

[3] = system: PANC1 cell line; assay: cells; type: cell-based; conditions: Homo sapiens, PANC-1, 24 h, read-out: % Cell Viability
Protocol: as §1, §2

[4] = system: MCF7 breast cancer cells; assay: Hoechst 33342 staining of nuclear morphological changes (apoptosis); type: cell-based, human; conditions: MCF7, 150 μM, 24 hrs, FIG. 3B
Protocol: MCF7 cells (2×10^4 cells/well) were treated with 3 μM, 30 μM, 300 μM, 600 μM, 1.5 mM of isopicrinine at 37° C. in a humidified incubator with 5% CO2 for 20 hrs. After the drug treatment, cells were analysed under phase contrast microscope. Cytotoxicity was detected at 300 μM concentration onwards in all the samples. […] The nuclear morphological changes, which are mainly associated with apoptosis were analysed by Hoechst 33342 staining. Briefly, MCF7 cells (2×10^4 cells/well) were grown on coverslips and treated with 150 μM of purified alkaloid for 24 hrs. The cells were washed with Dulbecco's phosphate buffer saline (DPBS) and fixed with 100% methanol for 15 min at room temperature. Cells were washed with DPBS and stained with Hoechst 33342 for 15 min at room temperature. The cells were washed thrice with DPBS and analysed under fluorescent microscope (Nikon, Japan).

[5] = system: MCF7 breast cancer cells; assay: RNA-Seq gene expression profiling of isopicrinine-treated MCF7 cells; type: cell-based, human; conditions: for number of upregulated genes / number of downregulated genes: vs DMSO-treated control, P value <0.05; for number of downregulated genes: fold change <−1
Protocol: MCF7 cells (1.6×10^5 cells) were treated with varying doses (sub-lethal) of purified isopicrinine i.e., 30 μM and 150 μM, in triplicates, for 18 hrs at 37° C. Total RNA was extracted using TRIzol reagent. Gene expression analyses of drug-treated MCF7 cells in the presence of sub-lethal concentrations of isopicrinine were performed using Illumina HiSeq. Each RNA was ribo-depleted (Ribo-Zero, Epicentre) prior to cDNA libarary preparation (ScriptSeq epicenter). Each cDNA was separately barcode tagged during library preparation, and sequenced in multiplex generating approximately >40 million 100 bp reads per sample for the mammalian cell line. The Illumina reads were mapped to their respective assembled reference transcriptome sequence using the mapping software TopHat and Cufflinks (Trapnell, C., Pachter, L., Salzberg, S. L. 2009. TopHat: discovering splice junctions with RNA-Seq. Bioinformatics, May 1; 25(9):1105-11. doi: 10.1093/bioinformatics/btp120, incorporated herein by reference in its entirety). Illumina read abundances mapping to each reference contig was normalized using the RPKM (reads per Kb per million reads) calculation. Differentially expressed transcripts were identified and functionally annotated using a variety of statistical analyses available via bioconductor in R language (Durinck, S., Moreau, Y., Kasprzyk, A., Davis, S., De Moor, B., Brazma, A., Huber, W. 2005. BioMart and Bioconductor: a powerful link between biological databases and microarray data analysis. Bioinformatics, 21(16), 3439-3440. doi: 10.1093/bioinformatics/bti525, incorporated herein by reference in its entirety). Clusters of differentially expressed and cycling transcripts were annotated to identify over-represented GO/KEGG pathways (Kanehisa, M., Goto, S., Sato, Y., Furumichi, M., Tanabe, M., 2012. KEGG for integration and interpretation of large-scale molecular data sets. Nucleic Acids Res., 40 (Database issue), D109-14. doi: 10.1093/nar/gkr988, incorporated herein by reference in its entirety).
MCF7 cell line was treated with sub-lethal doses of 30 μM and 150 μM of isopicrinine. […] RNA-Seq transcription profiling was performed for analyzing the transcriptome profile in alkaloid treated MCF7 cells in order to evaluate the pharmacological effects of the new alkaloid isolated from Rhazya stricta. To identify the differentially regulated/expressed genes after treatment with isopicrinine, RNA was extracted from alkaloid treated MCF7 cells (30 μM and 150 μM doses) and DMSO-treated control cells and RNA-Seq experiment was carried out. The sequencing data were compared and analyzed to identify the differentially expressed genes in mammalian cells after treatment with isopicrinine.

[6] = system: MCF7 breast cancer cells; assay: as above; type: cell-based, human; conditions: MCF7, 30 μM and 150 μM
[7] = MCF7, vs DMSO control, Cell divsion, dose not given
[8] = MCF7, vs DMSO control, Chromosone Organization, dose not given
[9] = MCF7, vs DMSO control, Cytoskeleton, dose not given
[10] = MCF7, vs DMSO control, DNA repair, dose not given
[11] = MCF7, vs DMSO control, DNA replication, dose not given
[12] = MCF7, vs DMSO control, Induction of apoptosis, dose not given
[13] = MCF7, vs DMSO control, Regulation of cell growth, dose not given
[14] = MCF7, vs DMSO control, Regulation of transcription, dose not given
[15] = MCF7, vs DMSO control, Response to DNA damage stimulus, dose not given

C/C=C1\CN2[C@H]3C[C@@H]1[C@@H](C(=O)OC)[C@]14C[C@H]2O[C@]31Nc1ccccc14 [isopicrinine]
IC50 ([1]; Homo sapiens, MCF7, 20 h, read-out: IC50 value (cytotoxic activity against MCF7 cells)): 240 µM
cell morphology after treatment with high doses ([1]; MCF7, FIGS. 2D-2F (300, 600, 1,500 μM)): cell shrinkage, cellular detachment and loss of adherent morphology
viability at 30 µM [2]: 87.7%
viability at 75 µM [2]: 55.9%
viability at 150 µM [2]: 53.5%
viability at 300 µM [2]: 42.4%
viability at 30 µM [3]: 74.5%
viability at 75 µM [3]: 70.8%
viability at 150 µM [3]: 69.6%
viability at 300 µM [3]: 64.6%
nuclear morphology, Hoechst 33342 staining [4]: chromatin condensation and nuclear fragmentation
expression of Mxi1 gene ([5]; MCF7): significantly upregulated
expression of cell cycle and cell proliferation genes (CDC6, CDK1, CDCA5, DLGAP5, NUSAP1, KIF23, PRC1, BIRC5, AURKB, NDC80, CDC45) ([5]; MCF7, 30 μM): not affected
cytotoxicity at sub-lethal doses ([5]; MCF7, 30 μM and 150 μM, 18 hrs): No cytotoxicity was detected
number of upregulated genes ([5]; MCF7, 30 μM): 148 genes
number of downregulated genes ([5]; MCF7, 30 μM): 64 genes
expression of cell cycle and cell proliferation genes (CDC6, CDK1, CDCA5, DLGAP5, NUSAP1, KIF23, PRC1, BIRC5, AURKB, NDC80, CDC45) ([5]; MCF7, 150 μM): significantly downregulated
number of downregulated genes ([5]; MCF7, 150 μM): 59 genes
number of upregulated genes ([5]; MCF7, 150 μM, fold change >1): 36 genes
expression of cell division and mitosis genes (PTTG1, DLGAP5, Cdc6, NDC80, KIF15, KIF23, PRC1, NUSAP1, Aurora B kinase, CDCA5, ATAD2) ([5]; MCF7, high dose): downregulated
expression of pro-apoptotic gene PUMA (BBC3) ([5]; MCF7, sub-lethal dose, FIG. 5): upregulated
expression of survivin (BIRC5) ([5]; MCF7, sub-lethal doses): Downregulation
log2 (fold change) ASPM [5, 7]: −1.3045
log2 (fold change) AURKB [5, 7]: −1.646
log2 (fold change) BIRC5 [5, 7]: −0.9572
log2 (fold change) CDC6 [5, 7]: −2.322
log2 (fold change) CDCA5 [5, 7]: −1.551
log2 (fold change) CDK1 [5, 7]: −1.149
log2 (fold change) FBXO5 [5, 7]: −1.067
log2 (fold change) KIF23 [5, 7]: −0.905
log2 (fold change) NCAPG [5, 7]: −1.314
log2 (fold change) NCAPH [5, 7]: −1.018
log2 (fold change) NDC80 [5, 7]: −1.343
log2 (fold change) NUSAP1 [5, 7]: −1.539
log2 (fold change) PRC1 [5, 7]: −1.527
log2 (fold change) PTTG1 [5, 7]: −1.05
log2 (fold change) SGOL1 [5, 7]: −1.044
log2 (fold change) DLGAP5 [5, 8]: −1.263
log2 (fold change) ESPL1 [5, 8]: −1.9647
log2 (fold change) H2AFZ [5, 8]: −0.952
log2 (fold change) HIST1H1B [5, 8]: −2.278
log2 (fold change) HIST1H2AJ, HIST1H2AK [5, 8]: −2.034
log2 (fold change) HIST1H2AM, HIST1H3J [5, 8]: −2.034
log2 (fold change) HIST1H2BL [5, 8]: −2.032
log2 (fold change) HIST2H2AA4, HIST2H2AC [5, 8]: −1.505
log2 (fold change) HIST2H2AB [5, 8]: −2.144
log2 (fold change) HIST2H2BF [5, 8]: −1.757
log2 (fold change) HIST2H3C [5, 8]: −2.716
log2 (fold change) HIST2H3PS2 [5, 8]: −1.3321
log2 (fold change) HIST2H4A [5, 8]: −2.138
log2 (fold change) AGBL2 [5, 9]: 2.627
log2 (fold change) DLG2 [5, 9]: 2.268
log2 (fold change) DRP2 [5, 9]: 2.047
log2 (fold change) KRT81 [5, 9]: 1.797
log2 (fold change) PTP4A1 [5, 9]: 1.331
log2 (fold change) BRCA1 [5, 10]: −1.076
log2 (fold change) EXO1 [5, 10]: −1.784
log2 (fold change) RAD51AP1 [5, 10]: −1.652
log2 (fold change) UHRF1 [5, 10]: −1.1337
log2 (fold change) CDC45 [5, 11]: −1.801
log2 (fold change) MCM3 [5, 11]: −1.644
log2 (fold change) MCM4 [5, 11]: −1.522
log2 (fold change) MCM5 [5, 11]: −1.878
log2 (fold change) MCM6 [5, 11]: −1.423
log2 (fold change) MCM7 [5, 11]: −1.716
log2 (fold change) MCM8 [5, 11]: −1.013
log2 (fold change) MCM10 [5, 11]: −1.321
log2 (fold change) RFC3 [5, 11]: −1.142
log2 (fold change) RRM2 [5, 11]: −1.2797
log2 (fold change) TOP2A [5, 11]: −1.662
log2 (fold change) BBC3 [5, 12]: 1.481
log2 (fold change) CDKN1A [5, 12]: 1.119
log2 (fold change) INHBA [5, 12]: 1.026
log2 (fold change) MAGED1 [5, 12]: 0.8954
log2 (fold change) LTBP4 [5, 13]: 1.504
log2 (fold change) SPP1 [5, 13]: 1.075
log2 (fold change) VGF [5, 13]: 0.9472
log2 (fold change) ATAD2 [5, 14]: −1.388
log2 (fold change) ATAD5 [5, 14]: −1.628
log2 (fold change) ATF3 [5, 14]: 1.3961
log2 (fold change) BRIP1 [5, 14]: −1.416
log2 (fold change) EGR1 [5, 14]: 1.39
log2 (fold change) FHL2 [5, 14]: 1.024
log2 (fold change) MDM2 [5, 14]: 1.725
log2 (fold change) MXI1 [5, 14]: 1.118
log2 (fold change) MYBL2 [5, 14]: −1.231
log2 (fold change) NRG1 [5, 14]: 0.8825
log2 (fold change) BTG2 [5, 15]: 1.485
log2 (fold change) CCND1 [5, 15]: 1.49
log2 (fold change) DDB2 [5, 15]: 1.191
log2 (fold change) GADD45A [5, 15]: 1.333
cell proliferation at low doses compared to DMSO control [6]: prevented further cell proliferation
